These results are taken from US20010055614A1, “Antidepressant therapy” (priority 1998, published 2001).

Structures can show the parent of a compound that is named as a salt.

Data set [1] is described as follows: pKa of amitriptyline hydrochloride. The class given is physicochemical.
Data set [2] is described as follows: Solubility and dissolution rate of amitriptyline hydrochloride in artificial gastric and intestinal fluid. Type of data set: physicochemical. As to the method: Dosage form 10 controls the exit 13 surface area for releasing drug 16 essentially independent of the pH of the drug receiving biological receptor, thereby essentially preventing crystallizing drug 16 in exit 13, or essentially preventing blocking exit 13 with nonreleased drug 16. […] In artificial intestinal fluid at 37° C. the drug dissolution rate in artificial intestinal fluid at pH 7.5 is low compared to the dissolution rate in a lower pH such as gastric fluid having a pH of about 2. […] The dissolution rate is sensitive to pH changes, and when drug 16 is pumped from the dosage form it tends to crystallize at higher pH in orifice exit 13, or to partially block orifice exit 13, which in either instance, slows the drug release rate, and decreases the cumulative amount of drug released from the dosage form. The present invention by providing coated granules of antidepressant tricyclic drug 16, and by providing an orifice in the range of 1 mil to 30 mil (0.0254 mm to 0.760 mm), essentially overcomes the problems discussed above. […] In drawing FIG. 6, the release rate is given on the y-axis and the orifice surface area in mils and in mm^2 is given on the x-axis. The release of drug from the dosage form was measured in artificial intestinal fluid. […] Drawing FIG. 9 depicts the cumulative amount of drug release in mg, over a period of 24 hours for a coated drug through a 10 mil (0.254 mm) exit orifice illustrates about 100% of the drug is delivered free of crystalizing in the orifice. Drawing FIG. 10 depicts the release rate measured in artificial gastric fluid over zero to two hours and then in artificial intestinal fluid over two to twenty-four hours, through a 10 mil (0.254 mm) orifice illustrates about 90% of the drug is delivered under these conditions. […] The antidepressant drug is dose delivered independent of pH as found in the gastrointestinal drug and free from sticking or blocked delivery to a patient.

Broadly, the pKa is the negative logarithm of the acid dissociation constant. For orientation: solubility means the concentration that dissolves in the medium under given conditions. On to `CN(C)CCC=C1c2ccccc2CCc2ccccc21` [amitriptyline hydrochloride], for which the pKa in data set [1] stood at 9.4. Also, in data set [2] (7.5 pH, artificial intestinal fluid, compared to artificial gastric fluid at pH 6), the “solubility (in words)” value is recorded as “soluble, but the solubility is less”. This compound had a solubility in data set [2] (artificial gastric fluid, pH 6, simulated gastric fluid) greater than 600 mg/mL. Besides, the “dissolution rate (in words)” value in data set [2] (artificial intestinal fluid at pH 7.5, 37° C., compared to gastric fluid pH about 2) is on record as “low”.
